Data from patent publication US20240043379A1, “PRODRUGS OF CYTOTOXIC ACTIVE AGENTS HAVING ENZYMATICALLY CLEAVABLE GROUPS” (Bayer Pharma Aktiengesellschaft, priority 2016, published 2024).

Key:
[1] = tested on: NCI-H292: human mucoepidermoid lung carcinoma cells; test: MTT assay, cytotoxic effect on NCI-H292; type: cell-based; details: Table 2, metabolites and small-molecule reference examples
Experimental: (§1) The analysis of the cytotoxic effects of the ADCs was carried out with various cell lines:
(§2) The cells were cultivated by the standard method as stated by the American Tissue Culture Collection (ATCC) or the Leibniz-Institut DSMZ-Deutsche Sammlung von Mikroorganismen und Zellkulturen GmbH (DSMZ) for the cell lines in question.
(§3) The cells were then incubated in an incubator at 37° C., and 5% carbon dioxide. […] To this end, the MTT reagent was incubated with the cells for 4 h, followed by lysis of the cells overnight by addition of the detergent. […] The measured data were used to calculate the IC50 of the growth inhibition using the DRC (dose response curve). The proliferation of cells which were not treated with test substance but were otherwise identically treated was defined as the 100% figure.

[2] = tested on: SK-HEP-1: human liver cell cancer line; test: MTT assay, cytotoxic effect on SK-HEP-1; type: cell-based; details: Table 2, metabolites and small-molecule reference examples
Experimental: as §1, §2, §3

[3] = tested on: Caco-2 cells; test: Caco-2 flux assay for cell permeability; type: in vitro ADME; details: Caco-2, 2 hours incubation
[4] = Caco-2 flux assay for cell permeability; type: in vitro ADME; details: human; for Papp B→A at 2 h: Caco-2, 2 hours incubation; for efflux ratio at 2 h: ratio of Papp (B-A) to Papp (A-B), Caco-2
[5] = tested on: KPL4: human breast cancer cell line; test: MTT assay, cytotoxic effect on KPL4; type: cell-based; details: Table 2, metabolites and small-molecule reference examples
Experimental: as §1, §2, §3

Row | Structure (SMILES) | IC50 [1] [nM] | IC50 [2] [nM] | Papp (B-A) [3] [×10⁻⁶ cm/s] | Papp B→A at 2 h [4] [×10⁻⁶ cm/s] | efflux ratio at 2 h [4] | also measured
1 | CC(C)(C)[C@H](c1cc(-c2cc(F)ccc2F)cn1Cc1ccccc1)N(CC[C@H](N)C(=O)NCCNC(=O)CNC(=O)CC(SC[C@H](N)C(=O)O)C(=O)O)C(=O)CO.O=C(O)C(F)(F)F (stereo partly drawn) [Example M26, 4-[(2-{[2-({(2S)-2-Amino-4-[{(1R)-1-[1-benzyl-4-(2,5-difluorophenyl)-1H-pyrrol-2-yl]-2,2-dimethylpropyl}(glycoloyl)amino]butanoyl}amino)ethyl]amino}-2-oxoethyl)amino]-2-{[(2R)-2-amino-2-carboxyethyl]sulphanyl}-4-oxobutanoic acid/trifluoroacetic acid (1:1)] | 63.8 | 19 | 1.3 |  |  | 
2 | CC(C)(C)[C@H](c1cc(-c2cc(F)ccc2F)cn1Cc1ccccc1)N(CCCN)C(=O)CSC[C@H](NC(=O)CCOCCOCCOCCOCCNC(=O)CNC(=O)CC(SC[C@H](N)C(=O)O)C(=O)O)C(=O)O.O=C(O)C(F)(F)F.O=C(O)C(F)(F)F (stereo partly drawn) [Example M20, (1R,4R,27R,33R)-1-Amino-32-(3-aminopropyl)-33-[1-benzyl-4-(2,5-difluorophenyl)-1H-pyrrol-2-yl]-34,34-dimethyl-6,9,25,31-tetraoxo-13,16,19,22-tetraoxa-3,29-dithia-7,10,26,32-tetraazapentatriacontane-1,4,27-tricarboxylic acid/trifluoroacetic acid (1:2)] |  |  |  | 0.09 |  | 
3 | CC(C)(C)[C@H](c1cc(-c2cc(F)ccc2F)cn1Cc1ccccc1)N(CC[C@H](N)C(=O)N[C@H](CCC(=O)O)C(=O)O)C(=O)CO.O=C(O)C(F)(F)F [Example M25, N-{(2S)-2-Amino-4-[{(1R)-1-[1-benzyl-4-(2,5-difluorophenyl)-1H-pyrrol-2-yl]-2,2-dimethylpropyl}(glycoloyl)amino]butanoyl}-L-glutamic acid/trifluoroacetic acid (1:1)] |  |  | 0.81 |  |  | IC50 ([1]; Homo sapiens, NCI-H292): 500 nM; IC50 ([2]; Homo sapiens, SK-HEP1): 500 nM; IC50 ([5]; Homo sapiens, KPL4): 500 nM
4 | CC(C)(C)[C@H](c1cc(-c2cc(F)ccc2F)cn1Cc1ccccc1)N(CC[C@H](N)C(=O)NCCNC(=O)CCCC(=O)NCCCC[C@H](N)C(=O)O)C(=O)CO.O=C(O)C(F)(F)F [Example M29, N^6-(5-{[2-({(2S)-2-Amino-4-[{(1R)-1-[1-benzyl-4-(2,5-difluorophenyl)-1H-pyrrol-2-yl]-2,2-dimethylpropyl}(glycoloyl)amino]butanoyl}amino)ethyl]amino}-5-oxopentanoyl)-L-lysine/trifluoroacetic acid (1:1)] |  |  |  | 0.41 | 5.3 | 
5 | CC(C)(C)[C@H](c1cc(-c2cc(F)ccc2F)cn1Cc1ccccc1)N(CC[C@H](N)C(=O)NCCNC(=O)CNC(=O)CCCC(=O)NCCCC[C@H](N)C(=O)O)C(=O)CO.O=C(O)C(F)(F)F [Example M28, N^6-{(3R,7S)-7-Amino-3-[1-benzyl-4-(2,5-difluorophenyl)-1H-pyrrol-2-yl]-4-glycoloyl-2,2-dimethyl-8,13,16,20-tetraoxo-4,9,12,15-tetraazaicosan-20-yl}-L-lysine/trifluoroacetic acid (1:1)] |  |  |  | 0.19 | 1 | 
6 | CC(C)(C)[C@H](c1cc(-c2cc(F)ccc2F)cn1Cc1ccccc1)N(CC[C@H](N)C(=O)NCCNC(=O)CNC(=O)C(CC(=O)O)SC[C@H](N)C(=O)O)C(=O)CO (single isomer, unassigned) [Example M16] | 143 | 44 |  |  |  | IC50 [5]: 195 nM
